Test results published in patent publication US9718805B2, “Triazole compounds and their use as gamma secretase modulators” (Acturum Life Science AB, priority 2013, dated 2017).

Experiments:
[1] = system: Aβ42 formation in HEK cell line stably expressing APP with the Swedish mutation (APPswe); experiment: HEK assay (Aβ42 secreted to cell medium, Meso Scale electrochemiluminescence); format: cell-based; conditions: Homo sapiens, HEK293; HEK cells expressing APPswe; 4-6 hours incubation with test compound; read-out: pIC50 Aβ42 HEK assay (converted)
Procedure: (§1) The level of activity of the compounds on Aβ formation was tested using the following methods:
Compounds were diluted in 100% DMSO and stored at 20° C. prior to use. Human Embryonic Kidney (HEK) cell line stably expressing APP with the Swedish mutation (APPswe) was cultured using Dulbecco's Modified Eagles medium (DMEM) supplied with […] glucose, Na-pyruvate and GlutaMAX, 10% Foetal bovine serum, 100 U/mL penicillin-streptomycin (PEST), 1× non-essential amino acids (NEAA), […] Hepes, 100 μg/mL Zeocine. Cells at about 80% confluence were washed with PBS, detached from culture flasks using 1×Trypsin/EDTA diluted in PBS, re-suspended in cell media and plated in 384-well poly-d-lysine coated cell culture plates at about 10000-15000 cells/well, in 25 μL cell media. Optionally, cryo-preserved cells (frozen and stored at −140° C. in 90% cell media and 10% DMSO) were thawed, washed and plated as above. Next the cells were incubated for 15-24 h at 37° C. and 5% CO2, after which cell medium was changed. Fresh medium containing test compound diluted ×200 from prepared compound plate was added to the cells before further incubation for 4-6 hours at 37° C. and 5% CO2. After incubation with test compound the amount of Aβ peptides, including Aβ42, Aβ40, Aβ39, Aβ38 and Aβ37, secreted to cell medium was analyzed using the electrochemiluminescence assay technology from Meso Scale Discovery Technology, in combination with specific antibodies raised against the different Aβ peptides. Potential cytotoxic effects of the compounds were assayed by measuring the ATP content (ViaLight) from cell lysate.

[2] = system: Aβ42 formation in primary cortical neuronal cells (PCN); experiment: PCN assay (Aβ42 secreted by primary cortical neuronal cells, ELISA); format: cell-based; conditions: mouse primary cortical neuronal cells; 16-20 hours incubation with test compound; read-out: pIC50 Aβ42 PCN assay (converted)
Procedure: as §1
Compounds were diluted in 100% DMSO and stored at 20° C. prior to use. Primary cortical neuronal cells (PCN) were isolated from 16-day mouse embryos and cultured in Ham's F12 media containing 10% Foetal bovine serum, 10 mM Hepes, 2 mM L-glutamine and 100 U/ml Penicillin-Streptomycin. 150000-250000 cells/well, in 200 μl cell media were seeded onto 96-well poly-D-Lysine coated plates. After incubation at 37° C., 5% CO2 for five days, the media was exchanged for fresh medium containing test compound diluted ×100, before further incubation for 16-20 hours at 37° C. and 5% CO2. After incubation with test compound the amount of Aβ42 peptides secreted to cell medium was analyzed using the solid phase sandwich Enzyme-Linked-Immuno-Sorbent Assay (ELISA)-kit from Invitrogen for detection of mouse βAmyloid 1-42. Potential cytotoxic effects of the compounds were assayed by measuring the ATP content (Via Light) from cell lysate.

Row | IC50 [2] [nM] | SMILES | IC50 [1] [nM]
1 | 158 | COc1cc(Nc2nc(NCC3CC3)n(C)n2)ccc1-n1cnc(C)c1 [Example 1, N^5-(Cyclopropylmethyl)-N^3-[3-methoxy-4-(4-methyl-1H-imidazol-1-yl)phenyl]-1-methyl-1H-1,2,4-triazole-3,5-diamine] | 79.4
2 |  | COc1cc(Nc2nc(N(CC3CC3)CC3CC3)n(C)n2)ccc1-n1cnc(C)c1 [Example 2, 5-N,5-N-Bis(cyclopropylmethyl)-3-N-[3-methoxy-4-(4-methyl-1H-imidazol-1-yl)phenyl]-1-methyl-1H-1,2,4-triazole-3,5-diamine] | 63.1
3 |  | COc1cc(Nc2nc(NCC3CC3)n(CC(C)C)n2)ccc1-n1cnc(C)c1 [Example 3, 5-N-(Cyclopropylmethyl)-3-N-[3-methoxy-4-(4-methyl-1H-imidazol-1-yl)phenyl]-1-(2-methylpropyl)-1H-1,2,4-triazole-3,5-diamine] | 63.1
4 |  | COc1cc(Nc2nc(N(C)CC(C)(C)O)n(Cc3ccccc3)n2)ccc1-n1cnc(C)c1 [Example 4, 1-[(1-Benzyl-3-{[3-methoxy-4-(4-methyl-1H-imidazol-1-yl)phenyl]amino}-1H-1,2,4-triazol-5-yl)(methyl)amino]-2-methylpropan-2-ol] | 100
5 |  | COc1cc(Nc2nc(N(C)CC3CC3)n(CC(C)(C)O)n2)ccc1-n1cnc(C)c1 [Example 5, 1-{5-[(Cyclopropylmethyl)(methyl)amino]-3-{[3-methoxy-4-(4-methyl-1H-imidazol-1-yl)-phenyl]amino}-1H-1,2,4-triazol-1-yl}-2-methylpropan-2-ol] | 79.4
6 | 15.8 | COc1cc(Nc2nc(NCc3ccccc3)n(CC(C)(C)O)n2)ccc1-n1cnc(C)c1 [Example 6, 1-[5-(Benzylamino)-3-{[3-methoxy-4-(4-methyl-1H-imidazol-1-yl)phenyl]amino}1H-1,2,4-triazol-1-yl]-2-methylpropan-2-ol] | 20
7 | 20 | COc1cc(Nc2nc(N(C)Cc3ccccc3)n(CC(C)(C)O)n2)ccc1-n1cnc(C)c1 [Example 7, 1-{5-[Benzyl(methyl)amino]-3-{[3-methoxy-4-(4-methyl-1H-imidazol-1-yl)phenyl]amino}-1H-1,2,4-triazol-1-yl}-2-methylpropan-2-ol] | 15.8
